The nature of this experiment: Inhibition of erythropoietin-stimulated STAT5 expressed in human U2OS cells.

As usually defined, the pEC50 is the negative decadic logarithm of the EC50, by convention in mol/L. Higher therefore signals a low EC50.

pEC50: −log10 of the molar value.

Compound `Cc1cc(Nc2nc(N[C@@H](C)c3ncc(F)cn3)c(C#N)nc2C)[nH]n1` [(S)-3-(1-(5-fluoropyrimidin-2-yl)ethylamino)-6-methyl-5-(5-methyl-1H-pyrazol-3-ylamino)pyrazine-2-carbonitrile] showed a pEC50 of 7.40.
